Assay results reported in patent US20040006236A1, “Diaminopropionic acid derivatives” (priority 1999, published 2004).
Read-outs that look alike come from different tables or passages of the source.

Experiments:
[1] = test system: T lymphocyte proliferation (C57BI/6 spleen cells with irradiated BALB/c spleen cells); test: Mixed lymphocyte reaction (MLR), one-way; type: cell-based, mice; settings: read-out: MLR IC50
Source text: Admixture of murine spleen cells from two different inbred strains of mice induces proliferation of T lymphocytes. The magnitude of T cell proliferation depends on the extent of disparity in the major histocompatibility antigens between the two strains. Splenic T lymphocytes from both strains proliferate due to alloantigen recognition, a process for which the interaction of ICAM-1 on antigen-presenting cells with LFA-1 on lymphocytes is necessary. The ability of antagonists to inhibit T lymphocyte proliferation following recognition of alloantigens was assessed in a one-way MLR, where cells from one strain were irradiated to permit measurement of the proliferative response of cells from the other strain. Spleen cells were washed three times in tissue culture medium (TCM; see below). […] One hundred microliters of serial dilutions of antagonists or TCM were added to the spleen cell mixture. The total volume in each well was 200 μL. TCM was RPMI1640 containing 10% heat-inactivated fetal bovine serum, […] L-glutamine, 100 Units/ml each of penicillin and streptomycin and 5×10^−5 M 2-mercaptoethanol. Dilutions of antagonists were prepared in TCM. Plates were incubated in 5% CO2 for 3 days. On the third day, 0.5 μCi of tritiated thymidine (10 μCi/mL) was added to all the wells. Cells were harvested 6 h later on a 96-well plate harvester and the amount of tritiated thymidine incorporated was assessed in a liquid scintillation counter.

[2] = test system: cell-surface Mac-1 adhesion to immobilized fibrinogen (HL-60 cells); test: Mac-1/Fibrinogen cell-based screening assay; design: species or system human; settings: read-out: Mac-1/Fgn Cell based Assay IC50
Description: Cellular Mac-1/Fibrinogen antagonist activity, defined as the ability to inhibit cell-surface Mac-1 adhesion to immobilized fibrinogen, was quantitated by a cell based assay. Human fibrinogen was coated onto 96 well microtiter plates (1 μg in 100 μL TBS) overnight at 4° C. The plates were then blocked with 150 μL of 10% polyvinyl pyrrolidone (PVP) in TBS for 1 h at 37° C. Plates were washed 3 times (150 μL each) with TBS. […] A ten-fold excess of volume of the same buffer was added and cells were centrifuged. The medium was decanted and cells were resuspended at a concentration of 2×10^6 cells/mL in RPMI/0.05% BSA/0.2 mM MnCl2. Stock solutions (10 mM in DMSO) of test compounds were diluted to 2.5 mM with DMSO. […] Each sample was further diluted 50-fold with RPMI/0.05% BSA/0.2 mM MnCl2. Equal volumes of labeled cells were then added to assay tubes containing diluted compounds. […] Cells were incubated for 10 min at 37° C. with gentle shaking, then dispensed (100 μL per well) onto fibrinogen coated plates and incubated for 30 min at 37° C./5% CO2. Unbound cells were gently washed with TBS two times.

[3] = target: T1, LFA-1 binding to immobilized ICAM-1 (Homo sapiens, UniProt P05107+P20701); test: LFA-1/ICAM-1 protein-protein assay (solid-phase ELISA); settings: read-out: LFA-1/ICAM-1 Protein-Protein Assay IC50
T1 construct: made in house; host or cells: transfected 293 cells (LFA-1)
In short: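 Human 5dICAM-Ig (ICAM-1 extracellular domain–IgG Fc) coated on plates; membrane-bound LFA-1 from transfected 293 cells (280 ng/mL) added with compound in Mn2+-containing HEPES buffer pH 7.2, 2 h at 37° C. Bound LFA-1 detected via anti-β2 antibody and HRP/TMB at 450 nm; IC50s determined.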

[4] = Homo sapiens, HL-60, HL-60 cells

T1 sequence (P20701 26-1170): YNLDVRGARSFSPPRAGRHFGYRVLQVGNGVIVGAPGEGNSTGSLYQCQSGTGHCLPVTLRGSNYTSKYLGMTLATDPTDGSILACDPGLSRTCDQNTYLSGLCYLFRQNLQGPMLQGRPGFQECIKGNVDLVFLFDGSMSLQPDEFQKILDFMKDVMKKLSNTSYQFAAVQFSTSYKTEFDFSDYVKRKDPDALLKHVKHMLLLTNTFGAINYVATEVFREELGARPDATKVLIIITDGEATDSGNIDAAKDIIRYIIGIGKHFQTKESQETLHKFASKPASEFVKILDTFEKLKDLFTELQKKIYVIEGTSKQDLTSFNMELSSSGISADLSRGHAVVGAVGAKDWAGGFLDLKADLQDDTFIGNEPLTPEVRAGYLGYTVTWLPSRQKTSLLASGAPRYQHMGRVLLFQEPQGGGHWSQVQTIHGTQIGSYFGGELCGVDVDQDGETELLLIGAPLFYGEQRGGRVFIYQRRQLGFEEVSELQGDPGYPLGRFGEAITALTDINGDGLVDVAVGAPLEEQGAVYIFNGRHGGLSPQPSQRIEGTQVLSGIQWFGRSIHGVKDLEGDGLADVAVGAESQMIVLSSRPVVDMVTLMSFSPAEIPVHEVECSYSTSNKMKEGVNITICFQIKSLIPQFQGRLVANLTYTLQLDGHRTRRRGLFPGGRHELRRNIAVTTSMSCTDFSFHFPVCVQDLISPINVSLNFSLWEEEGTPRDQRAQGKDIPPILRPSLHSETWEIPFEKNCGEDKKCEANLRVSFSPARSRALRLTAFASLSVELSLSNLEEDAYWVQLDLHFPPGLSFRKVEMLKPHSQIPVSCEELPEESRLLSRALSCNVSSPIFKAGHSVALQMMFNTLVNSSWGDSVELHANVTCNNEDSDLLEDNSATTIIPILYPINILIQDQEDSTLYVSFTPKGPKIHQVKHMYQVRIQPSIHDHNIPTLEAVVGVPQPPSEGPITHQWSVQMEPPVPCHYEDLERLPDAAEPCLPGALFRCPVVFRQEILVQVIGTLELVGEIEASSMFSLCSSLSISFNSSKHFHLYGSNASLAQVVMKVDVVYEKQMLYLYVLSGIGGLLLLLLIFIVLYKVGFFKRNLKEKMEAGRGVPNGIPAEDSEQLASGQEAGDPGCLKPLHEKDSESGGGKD
T1 sequence (P05107 23-769): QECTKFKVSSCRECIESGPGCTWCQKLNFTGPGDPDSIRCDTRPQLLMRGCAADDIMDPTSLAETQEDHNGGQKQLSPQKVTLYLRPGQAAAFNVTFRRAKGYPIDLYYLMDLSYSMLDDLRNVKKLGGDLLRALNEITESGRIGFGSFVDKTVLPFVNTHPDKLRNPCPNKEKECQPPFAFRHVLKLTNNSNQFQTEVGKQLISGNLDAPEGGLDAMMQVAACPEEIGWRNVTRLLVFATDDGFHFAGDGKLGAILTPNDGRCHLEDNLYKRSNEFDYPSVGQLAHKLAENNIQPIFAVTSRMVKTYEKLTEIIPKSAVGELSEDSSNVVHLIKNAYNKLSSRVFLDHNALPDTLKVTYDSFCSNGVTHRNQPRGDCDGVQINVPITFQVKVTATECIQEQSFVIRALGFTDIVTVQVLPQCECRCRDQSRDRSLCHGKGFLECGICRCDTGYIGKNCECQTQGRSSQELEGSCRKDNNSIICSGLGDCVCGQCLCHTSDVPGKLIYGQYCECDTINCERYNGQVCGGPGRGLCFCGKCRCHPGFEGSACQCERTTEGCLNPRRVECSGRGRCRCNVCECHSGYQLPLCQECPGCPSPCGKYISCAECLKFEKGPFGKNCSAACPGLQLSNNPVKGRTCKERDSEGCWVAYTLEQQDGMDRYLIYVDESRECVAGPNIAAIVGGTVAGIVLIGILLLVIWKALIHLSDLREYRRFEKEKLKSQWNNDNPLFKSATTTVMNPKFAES

SMILES | IC50 ([1]; Mus musculus, T-lymphocyte) | IC50 [2, 4] | IC50 [3] | IC50 ([2]; HL-60 cells) | IC50 [1]
O=C(NC[C@H](NC(=O)c1ccc(C(O)CCc2cccc(O)c2)cc1Cl)C(=O)O)c1cccs1 (mixture of isomers) [Example 320] | 0.145 µM | 0.064 µM | 0.001 µM | – | –
O=C(NCc1cccc(O)c1)c1ccc(C(=O)N[C@@H](CNC(=O)c2cc(Br)cc(Br)c2)C(=O)O)c(Cl)c1 [Example 228, N-[2-chloro-4-[[[(3-hydroxyphenyl)methyl]amino]carbonyl]benzoyl]-3-(3,5-dibromobenzoyl)amino-L-alanine] | 5 µM | 0.149 µM | 0.0071 µM | – | –
O=C(NCc1cccc(O)c1)c1ccc(C(=O)N[C@@H](CNC(=O)c2cc(F)cc(C(F)(F)F)c2)C(=O)O)c(Cl)c1 [Example 260] | 1.95 µM | 0.33 µM | 0.0054 µM | – | –
O=C(NCc1cccc(O)c1)c1ccc(C(=O)N[C@@H](CNC(=O)[C@@H]2CSCN2)C(=O)O)c(Cl)c1 [Example 267] | 0.49 µM | 0.071 µM | 0.0029 µM | – | –
O=C(NCc1cccc(O)c1)c1ccc(C(=O)N[C@@H](CNC(=O)[C@@H]2C[C@@H](O)CN2)C(=O)O)c(Cl)c1 [Example 268] | 0.9 µM | 0.148 µM | 0.0017 µM | – | –
NCCCCCCCCCCC(=O)NC[C@H](NC(=O)c1ccc(C(=O)NCc2cccc(O)c2)cc1Cl)C(=O)O [Example 270] | 4.75 µM | 0.357 µM | 0.0079 µM | – | –
N[C@@H](Cc1ccc([N+](=O)[O-])cc1)C(=O)NC[C@H](NC(=O)c1ccc(C(=O)NCc2cccc(O)c2)cc1Cl)C(=O)O [Example 271] | 4.1 µM | 0.547 µM | 0.0038 µM | – | –
N[C@@H](Cc1ccc(OCc2c(Cl)cccc2Cl)cc1)C(=O)NC[C@H](NC(=O)c1ccc(C(=O)NCc2cccc(O)c2)cc1Cl)C(=O)O [Example 273] | 12 µM | 1.74 µM | 0.0074 µM | – | –
N[C@H](Cc1c[nH]c2ccccc12)C(=O)NC[C@H](NC(=O)c1ccc(C(=O)NCc2cccc(O)c2)cc1Cl)C(=O)O [Example 276] | 7.25 µM | 0.235 µM | 0.0069 µM | – | –
CC(C)C[C@H](N)C(=O)NC[C@H](NC(=O)c1ccc(C(=O)NCc2cccc(O)c2)cc1Cl)C(=O)O [Example 277] | 8.7 µM | 0.282 µM | 0.0043 µM | – | –
CCCC[C@H](N)C(=O)NC[C@H](NC(=O)c1ccc(C(=O)NCc2cccc(O)c2)cc1Cl)C(=O)O [Example 278] | 13.5 µM | 0.311 µM | 0.0085 µM | – | –
CN[C@@H](C)C(=O)NC[C@H](NC(=O)c1ccc(C(=O)NCc2cccc(O)c2)cc1Cl)C(=O)O [Example 279] | 2.2 µM | 0.371 µM | 0.008 µM | – | –
C[C@H](N)C(=O)NC[C@H](NC(=O)c1ccc(C(=O)NCc2cccc(O)c2)cc1Cl)C(=O)O [Example 280] | 4.2 µM | – | 0.0031 µM | 0.077 µM | –
C[C@H](N)C(=O)NC[C@H](NC(=O)c1ccc(C(=O)NCc2cccc(O)c2)cc1Cl)C(=O)O [Example 281] | – | – | – | 0.291 µM | 4.45 µM
CC(C)(N)C(=O)NC[C@H](NC(=O)c1ccc(C(=O)NCc2cccc(O)c2)cc1Cl)C(=O)O [Example 282] | 1.05 µM | 0.162 µM | 0.0046 µM | – | –
CNCC(=O)NC[C@H](NC(=O)c1ccc(C(=O)NCc2cccc(O)c2)cc1Cl)C(=O)O [Example 283] | 1.5 µM | 0.166 µM | 0.0031 µM | – | –

SMILES | IC50 ([1]; Mus musculus, T-lymphocyte) | IC50 [2, 4] | IC50 [3] | IC50 ([2]; HL-60 cells) | IC50 [1]
NC1(C(=O)NC[C@H](NC(=O)c2ccc(C(=O)NCc3cccc(O)c3)cc2Cl)C(=O)O)CCCCC1 [Example 284] | 1.13 µM | 0.198 µM | 0.0057 µM | – | –
N[C@H](C(=O)NC[C@H](NC(=O)c1ccc(C(=O)NCc2cccc(O)c2)cc1Cl)C(=O)O)c1ccccc1 [Example 285] | 3.1 µM | 0.135 µM | 0.0031 µM | – | –
NC[C@H]1CC[C@H](C(=O)NC[C@H](NC(=O)c2ccc(C(=O)NCc3cccc(O)c3)cc2Cl)C(=O)O)CC1 [Example 286] | 1.52 µM | 0.074 µM | 0.0041 µM | – | –
N[C@@H](COCc1ccccc1)C(=O)NC[C@H](NC(=O)c1ccc(C(=O)NCc2cccc(O)c2)cc1Cl)C(=O)O [Example 293] | 13.5 µM | 0.29 µM | 0.0063 µM | – | –
N[C@H]1Cc2ccccc2CN(CC(=O)NC[C@H](NC(=O)c2ccc(C(=O)NCc3cccc(O)c3)cc2Cl)C(=O)O)C1=O [Example 295] | 1.62 µM | 0.089 µM | 0.0019 µM | – | –
O=C(NCc1cccc(O)c1)c1ccc(C(=O)N[C@@H](CNC(=O)[C@@H]2Cc3c([nH]c4ccccc34)CN2)C(=O)O)c(Cl)c1 [Example 296] | 4.6 µM | 0.167 µM | 0.0034 µM | – | –
Cc1cc(C(=O)NCc2cccc(O)c2)ccc1C(=O)N[C@@H](CNC(=O)c1ccccc1)C(=O)O [Example 324] | 0.46 µM | 0.032 µM | 0.0015 µM | – | –
Cc1cc(C(=O)N[C@H](C)c2cccc3ccccc23)ccc1C(=O)N[C@@H](CNC(=O)c1cccs1)C(=O)O [Example 325] | 0.965 µM | 0.059 µM | 0.0026 µM | – | –
Cc1cc(C(=O)N[C@H](C)c2cccc3ccccc23)ccc1C(=O)N[C@@H](CNC(=O)c1ccccc1)C(=O)O [Example 326] | 1.5 µM | 0.093 µM | 0.0041 µM | – | –
O=C(NCc1cccc(O)c1)c1ccc(C(=O)N[C@@H](CNC(=O)c2cccs2)C(=O)O)c(Br)c1 [Example 328, N-[2-bromo-4-[[[(3-hydroxyphenyl)methyl]amino]carbonyl]benzoyl]-3-(thiophene-2-carbonyl)amino-L-alanine] | 0.16 µM | 0.028 µM | 0.0013 µM | – | –
O=C(NCc1cccc(O)c1)c1ccc(C(=O)N[C@@H](CNC(=O)c2cccs2)C(=O)O)c(F)c1 [Example 331] | 0.71 µM | 0.068 µM | 0.0011 µM | – | –
O=C(NCc1cccc(O)c1)c1cc(Cl)c(C(=O)N[C@@H](CNC(=O)c2cccc(Cl)c2)C(=O)O)c(Cl)c1 [Example 348, 3-[(3-chlorobenzoyl)amino]-N-[2,6-dichloro-4-[[[(3-hydroxyphenyl)methyl]amino]carbonyl]benzoyl]-L-alanine] | 0.173 µM | 0.0198 µM | 0.0013 µM | – | –
Cc1cccc(C(=O)NC[C@H](NC(=O)c2c(Cl)cc(C(=O)NCc3cccc(O)c3)cc2Cl)C(=O)O)c1 [Example 352] | 0.091 µM | 0.028 µM | 0.0012 µM | – | –
O=C(NCc1cccc(O)c1)c1cc(Cl)c(C(=O)N[C@@H](CNC(=O)c2sccc2Cl)C(=O)O)c(Cl)c1 [Example 355] | 0.086 µM | 0.0177 µM | 0.0009 µM | – | –
O=C(NCc1cccc(O)c1)c1cc(Cl)c(C(=O)N[C@@H](CNC(=O)c2cc(Br)c(Br)s2)C(=O)O)c(Cl)c1 [Example 356] | 1.76 µM | 0.081 µM | 0.0034 µM | – | –
Cc1ccsc1C(=O)NC[C@H](NC(=O)c1c(Cl)cc(C(=O)NCc2cccc(O)c2)cc1Cl)C(=O)O [Example 357] | 0.021 µM | 0.023 µM | 0.0005 µM | – | –
